Each structure is given as a SMILES string.

TrkA, sequence (P04629 33-796): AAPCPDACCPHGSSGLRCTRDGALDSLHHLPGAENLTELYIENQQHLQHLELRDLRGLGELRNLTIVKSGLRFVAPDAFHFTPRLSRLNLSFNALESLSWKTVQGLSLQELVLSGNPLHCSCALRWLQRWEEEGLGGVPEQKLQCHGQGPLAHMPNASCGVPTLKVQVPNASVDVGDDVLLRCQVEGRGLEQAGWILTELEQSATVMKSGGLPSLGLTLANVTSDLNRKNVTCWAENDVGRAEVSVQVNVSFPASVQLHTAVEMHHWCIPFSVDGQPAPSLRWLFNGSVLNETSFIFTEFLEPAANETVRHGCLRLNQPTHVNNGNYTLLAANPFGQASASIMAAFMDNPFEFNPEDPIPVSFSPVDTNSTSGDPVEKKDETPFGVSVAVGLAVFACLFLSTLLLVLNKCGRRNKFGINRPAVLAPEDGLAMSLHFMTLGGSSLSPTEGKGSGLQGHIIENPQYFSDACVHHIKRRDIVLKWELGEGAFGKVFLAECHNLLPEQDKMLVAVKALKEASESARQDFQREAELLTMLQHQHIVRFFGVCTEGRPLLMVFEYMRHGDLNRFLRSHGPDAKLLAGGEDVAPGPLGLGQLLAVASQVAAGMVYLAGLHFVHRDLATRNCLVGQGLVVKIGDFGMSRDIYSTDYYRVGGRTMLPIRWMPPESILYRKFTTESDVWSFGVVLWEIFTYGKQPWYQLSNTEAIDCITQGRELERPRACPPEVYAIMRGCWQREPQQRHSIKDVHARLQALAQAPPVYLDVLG

This experiment concerns the target TrkA (Homo sapiens (Human), UniProt P04629). Kind of experiment: TrkA Omnia Assay. Format: biochemical. Particulars: averaged IC50; 20 nM enzyme, 500 μM ATP, 10 μM peptide substrate. Put shortly: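 Recombinant TrkA (20 nM) preincubated 10 min at ambient temperature with compound, then Omnia Tyr Peptide #4 (10 μM) and ATP (500 μM) added in 25 mM MOPS pH 7.5, 5 mM MgCl2, 0.005% Triton X-100. Fluorescence (ex 360/em 485 nm) followed continuously for 70 min; IC50 from initial rates by 4- or 5-parameter logistic fit.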
As usually defined, the IC50 is the concentration that gives 50% inhibition. Higher therefore signals lower potency. Compound `COCCN1C[C@@H](NC(=O)Nc2c3c(nn2-c2ccccc2)CSC3)[C@H](c2cc(F)cc(F)c2)C1` [Example 89, 1-((3S,4R)-4-(3,5-difluoro-phenyl)-1-(2-methoxyethyl)pyrrolidin-3-yl)-3-(2-phenyl-4,6-dihydro-2H-thieno[3,4-c]pyrazol-3-yl) urea] returned an IC50 of less than 0.1 µM.

As to `COCCN1C[C@@H](NC(=O)Nc2c3c(nn2-c2ccccc2)COC3)[C@H](c2ccc(F)c(F)c2)C1` [Example 90, 1-((3S,4R)-4-(3,4-difluoro-phenyl)-1-(2-methoxyethyl)pyrrolidin-3-yl)-3-(2-phenyl-4,6-dihydro-2H-furo[3,4-c]pyrazol-3-yl) urea], the IC50 was less than 0.1 µM.

For `COCCN1C[C@@H](NC(=O)Nc2c3c(nn2-c2ccccc2)CSC3)[C@H](c2ccc(F)c(F)c2)C1` [Example 91, 1-((3S,4R)-4-(3,4-difluoro-phenyl)-1-(2-methoxyethyl)pyrrolidin-3-yl)-3-(2-phenyl-4,6-dihydro-2H-thieno[3,4-c]pyrazol-3-yl) urea], the IC50 was less than 0.1 µM.

As for `COCCN1C[C@@H](NC(=O)Nc2c(C)c(C)nn2-c2ccccc2)[C@H](c2ccc(F)c(F)c2)C1` [Example 92, 1-((3S,4R)-4-(3,4-difluoro-phenyl)-1-(2-methoxyethyl)pyrrolidin-3-yl)-3-(3,4-dimethyl-1-phenyl-1H-pyrazol-5-yl)urea], the IC50 is less than 0.1 µM.

`COCCN1C[C@@H](NC(=O)Nc2cc(-c3ccccc3)nn2C)[C@H](c2ccc(F)c(F)c2)C1` [Example 93, 1-((3S,4R)-4-(3,4-difluoro-phenyl)-1-(2-methoxyethyl)pyrrolidin-3-yl)-3-(1-methyl-3-phenyl-1H-pyrazol-5-yl)urea] had an IC50 of less than 0.1 µM.

`COCCN1C[C@@H](NC(=O)Nc2cc(C(C)(C)CO)nn2-c2ccccc2)[C@H](c2ccccc2)C1` [Example 94, 1-(3-(1-hydroxy-2-methyl-propan-2-yl)-1-phenyl-1H-pyrazol-5-yl)-3-((3S,4R)-1-(2-methoxyethyl)-4-phenylpyrrolidin-3-yl)urea] gave an IC50 of 0.1 to 1 µM.

For the compound `COCCN1C[C@@H](NC(=O)Nc2c3c(nn2-c2ccccc2)C[S+]([O-])C3)[C@H](c2ccccc2)C1` (stereo partly drawn) [Example 95, 1-((3S,4R)-1-(2-methoxy-ethyl)-4-phenylpyrrolidin-3-yl)-3-(5-oxido-2-phenyl-4,6-dihydro-2H-thieno [3,4-c]pyrazol-3-yl)urea], the IC50 is less than 0.1 µM.

In turn, `COCCN1C[C@@H](NC(=O)Nc2cc(-c3ccncc3)nn2C)[C@H](c2ccccc2)C1` [Example 96, 1-((3S,4R)-1-(2-methoxy-ethyl)-4-phenylpyrrolidin-3-yl)-3-(1-methyl-3-(pyridin-4-yl)-1H-pyrazol-5-yl)urea] registered an IC50 of less than 0.1 µM.

`COCCN1C[C@@H](NC(=O)Nc2cc(-c3ccncc3)nn2C)[C@H](c2ccc(F)c(F)c2)C1` [Example 97, 1-((3S,4R)-4-(3,4-difluorophenyl)-1-(2-methoxyethyl)pyrrolidin-3-yl)-3-(1-methyl-3-(pyridin-4-yl)-1H-pyrazol-5-yl)urea] registered an IC50 of less than 0.1 µM.

Regarding `COCCN1C[C@@H](NC(=O)Nc2cc(-c3ccccc3)nn2C)[C@H](c2cc(F)cc(F)c2)C1` [Example 98, 1-((3S,4R)-4-(3,5-difluorophenyl)-1-(2-methoxyethyl)pyrrolidin-3-yl)-3-(1-methyl-3-phenyl-1H-pyrazol-5-yl) urea], the IC50 was less than 0.1 µM.

With `COCCN1C[C@@H](NC(=O)Nc2cc(-c3cccs3)nn2C)[C@H](c2cc(F)cc(F)c2)C1` [Example 99, 1-((3S,4R)-4-(3,5-difluorophenyl)-1-(2-methoxyethyl)pyrrolidin-3-yl)-3-(1-methyl-3-(thiophen-2-yl)-1H-pyrazol-5-yl)urea], the IC50 is less than 0.1 µM.

Compound `COCCN1C[C@@H](NC(=O)Nc2cc(COC)nn2-c2ccccc2)[C@H](c2ccccc2)C1` [Example 100, 1-((3S,4R)-1-(2-methoxy-ethyl)-4-phenylpyrrolidin-3-yl)-3-(3-(methoxy-methyl)-1-phenyl-1H-pyrazol-5-yl)urea] displayed an IC50 of 0.1 to 1 µM.

Regarding `COCCN1C[C@@H](NC(=O)Nc2c(C)c(COC)nn2-c2ccccc2)[C@H](c2ccccc2)C1` [Example 101, 1-((3S,4R)-1-(2-methoxy-ethyl)-4-phenylpyrrolidin-3-yl)-3-(3-(methoxy-methyl)-4-methyl-1-phenyl-1H-pyrazol-5-yl) urea], the IC50 is less than 0.1 µM.

The compound `COCCN1C[C@@H](NC(=O)Nc2cc(-c3ccc(C)cc3)nn2C)[C@H](c2ccc(F)c(F)c2)C1` [Example 102, 1-((3S,4R)-4-(3,4-difluorophenyl)-1-(2-methoxyethyl)pyrrolidin-3-yl)-3-(1-methyl-3-p-tolyl-1H-pyrazol-5-yl)urea] showed an IC50 of less than 0.1 µM.

In the case of `COCCN1C[C@@H](NC(=O)Nc2cc(-c3cccc(C)c3)nn2C)[C@H](c2ccc(F)c(F)c2)C1` [Example 103, 1-((3S,4R)-4-(3,4-difluorophenyl)-1-(2-methoxyethyl)pyrrolidin-3-yl)-3-(1-methyl-3-m-tolyl-1H-pyrazol-5-yl) urea], the half-maximal inhibitory concentration (IC50) is less than 0.1 µM.

As for `COCCN1C[C@@H](NC(=O)Nc2cc(-c3ccccc3C)nn2C)[C@H](c2ccc(F)c(F)c2)C1` [Example 104, 1-((3S,4R)-4-(3,4-difluorophenyl)-1-(2-methoxyethyl)pyrrolidin-3-yl)-3-(1-methyl-3-o-tolyl-1H-pyrazol-5-yl) urea], the 50% inhibitory concentration (IC50) is less than 0.1 µM.

As for `COCCN1C[C@@H](NC(=O)Nc2cc(-c3cccc(OC)c3)nn2C)[C@H](c2ccc(F)c(F)c2)C1` [Example 105, 1-((3S,4R)-4-(3,4-difluorophenyl)-1-(2-methoxyethyl)pyrrolidin-3-yl)-3-(3-(3-methoxy-phenyl)-1-methyl-1H-pyrazol-5-yl)urea], the IC50 is less than 0.1 µM.

As to `COCCN1C[C@@H](NC(=O)Nc2cc(-c3ccccc3OC)nn2C)[C@H](c2ccc(F)c(F)c2)C1` [Example 106, 1-((3S,4R)-4-(3,4-difluorophenyl)-1-(2-methoxyethyl)pyrrolidin-3-yl)-3-(3-(2-methoxy-phenyl)-1-methyl-1H-pyrazol-5-yl)urea], the IC50 was in the range of 0.1 to 1 µM.

For `COCCN1C[C@@H](NC(=O)Nc2cc(-c3ccc(F)cc3)nn2C)[C@H](c2ccccc2)C1` [Example 107, 1-(3-(4-fluorophenyl)-1-methyl-1H-pyrazol-5-yl)-3-((3S,4R)-1-(2-methoxy-ethyl)-4-phenylpyrrolidin-3-yl)urea], the IC50 was less than 0.1 µM.

`COCCN1C[C@@H](NC(=O)Nc2cc(-c3ccc(OC)cc3)nn2C)[C@H](c2ccccc2)C1` [Example 108, 1-((3S,4R)-1-(2-methoxy-ethyl)-4-phenylpyrrolidin-3-yl)-3-(3-(4-methoxy-phenyl)-1-methyl-1H-pyrazol-5-yl)urea] yielded an IC50 of less than 0.1 µM.

Take `COCCN1C[C@@H](NC(=O)Nc2cc(-c3ccccc3)nn2C)[C@H](c2cccc(C(F)(F)F)c2)C1` [Example 109, 1-((3S,4R)-1-(2-methoxy-ethyl)-4-(3-(trifluoro-methyl)phenyl)pyrrolidin-3-yl)-3-(1-methyl-3-phenyl-1H-pyrazol-5-yl) urea]: the IC50 fell in the range of 0.1 to 1 µM.

In turn, `COCCN1C[C@@H](NC(=O)Nc2cc(-c3ccccc3)nn2C)[C@H](c2cccc(F)c2)C1` [Example 110, 1-((3S,4R)-4-(3-fluoro-phenyl)-1-(2-methoxy-ethyl)pyrrolidin-3-yl)-3-(1-methyl-3-phenyl-1H-pyrazol-5-yl)urea] returned an IC50 of less than 0.1 µM.

As to `COCCN1C[C@@H](NC(=O)Nc2cc(-c3ccccc3)nn2C)[C@H](c2ccc(F)cc2F)C1` [Example 111, 1-((3S,4R)-4-(2,4-difluorophenyl)-1-(2-methoxyethyl)pyrrolidin-3-yl)-3-(1-methyl-3-phenyl-1H-pyrazol-5-yl)urea], the IC50 is less than 0.1 µM.

Compound `COCCN1C[C@@H](NC(=O)Nc2cc(-c3ccc(F)cc3)nn2C)[C@H](c2cccc(F)c2)C1` [Example 112, 1-((3S,4R)-4-(3-fluoro-phenyl)-1-(2-methoxy-ethyl)pyrrolidin-3-yl)-3-(3-(4-fluorophenyl)-1-methyl-1H-pyrazol-5-yl)urea] yielded an IC50 of less than 0.1 µM.

In the case of `COCCN1C[C@@H](NC(=O)Nc2cc(-c3ccc(F)cc3)nn2C)[C@H](c2ccc(F)c(F)c2)C1` [Example 113, 1-((3S,4R)-4-(3,4-difluorophenyl)-1-(2-methoxyethyl)pyrrolidin-3-yl)-3-(3-(4-fluoro-phenyl)-1-methyl-1H-pyrazol-5-yl)urea], the IC50 was less than 0.1 µM.

With `COCCN1C[C@@H](NC(=O)Nc2cc(-c3cccc(F)c3)nn2C)[C@H](c2ccc(F)c(F)c2)C1` [Example 114, 1-((3S,4R)-4-(3,4-difluorophenyl)-1-(2-methoxyethyl)pyrrolidin-3-yl)-3-(3-(3-fluoro-phenyl)-1-methyl-1H-pyrazol-5-yl)urea], the IC50 is less than 0.1 µM.

Turning to `COCCN1C[C@@H](NC(=O)Nc2cc(-c3ccccc3F)nn2C)[C@H](c2ccc(F)c(F)c2)C1` [Example 115, 1-((3S,4R)-4-(3,4-difluorophenyl)-1-(2-methoxyethyl)pyrrolidin-3-yl)-3-(3-(2-fluoro-phenyl)-1-methyl-1H-pyrazol-5-yl)urea], the IC50 was less than 0.1 µM.

With `COCCN1C[C@@H](NC(=O)Nc2c3c(nn2-c2ccccc2)CCC3)[C@H](c2cccc(F)c2)C1` [Example 116, 1-((3S,4R)-4-(3-fluoro-phenyl)-1-(2-methoxy-ethyl)pyrrolidin-3-yl)-3-(2-phenyl-2,4,5,6-tetrahydrocyclopenta [c]pyrazol-3-yl)urea], the IC50 is less than 0.1 µM.

In the case of `COCCN1C[C@@H](NC(=O)Nc2c(C)c(C(C)(C)CO)nn2-c2ccccc2)[C@H](c2ccccc2)C1` [Example 117, 1-(3-(1-hydroxy-2-methylpropan-2-yl)-4-methyl-1-phenyl-1H-pyrazol-5-yl)-3-((3S,4R)-1-(2-methoxyethyl)-4-phenylpyrrolidin-3-yl) urea], the IC50 was less than 0.1 µM.

Values taken from patent US10323022B2, “Pyrrolidinyl urea, pyrrolidinyl thiourea and pyrrolidinyl guanidine compounds as TrkA kinase inhibitors” (Array BioPharma Inc., priority 2011, dated 2019).
